{
  "source": "patent US6743446B2",
  "about": "“Methods for stabilizing biologically active agents encapsulated in biodegradable controlled-release polymers” (The Ohio State University Research Foundation, priority 1999, dated 2004)",
  "key": {"[1]": {"conditions": "reference (31); cited from earlier work"}, "Balb/c 3T3 fibroblasts": {"test_system": "Balb/c 3T3 fibroblasts", "experiment": "Bioassay for bFGF, cell proliferation (3H-thymidine incorporation)", "assay_type": "cell-based", "conditions": "bFGF from Mg(OH)2/BSA/heparin PLGA millicylinders, release and residual fraction", "protocol": "The biological activity of bFGF was determined by a cell proliferation assay (20). Balb/c 3T3 fibroblasts (25,000/well, CCL-163, ATCQ in Dulbecco's modified Eagle's medium (DMEM) containing 10% bovine calf serum, […] were seeded (200 μl/well) on 96-well plates. The cells were grown to confluence for one week without changing the medium. On day 7, bFGF samples or standards (10 μl) in the release medium were added and followed 20 h later by addition of 1 μCi of 3H-thymidine (6.7 Ci/mmol, DuPont/NEN® Research Products, Boston, Mass.) per well. After another 6-8 h, the cells were collected on filter paper by using a PHD TM cell harvester (Cambridge Technology Inc.). The harvested cells were resuspended in 3 ml of scintillation cocktail 3a7OB (Research Products International Corp., IL) and counted (Beckman LS 1701 scintillation counter)."}, "nude mice": {"test_system": "nude mice", "experiment": "In vivo angiogenesis of subcutaneously implanted bFGF devices", "conditions": "BSA/Mg(OH)2-containing PLGA formulation implanted subcutaneously, data not shown", "description": "In both cases, a controlled release of protein was observed over 28 days (data not shown) resulting in a recovery (released+soluble residue fraction) of >80% (Table 3). In contrast, when the base was removed from the formulation (18% gum arabic), only 30% protein was recovered by the immunoassay. Therefore, the stability characteristic of BMP-2 in PLGA millicylinders was very similar to that of bFGF (although additional stabilizers were used for bFGF) with and without the addition of the basic additive. For both growth factors, in the absence of basic additive, the protein was released mostly on the first day and only a small amount of protein could be recovered from the polymer after 28 days release. In the presence of the basic salt, both proteins were continuously released with >80% recoverable in the 28-day experiment. Moreover, the in vivo biological activities (angiogenesis in nude mice for the bFGF and osteogenesis in rats for the BMP-2) of the BSA/Mg(OH)2-containing formulations were also confirmed when the devices were implanted subcutaneously (data not shown)."}, "[2]": {"experiment": "pH of the release medium during incubation of polymer devices", "assay_type": "physicochemical", "conditions": "3% BSA/PLGA50/50 (0.20 dl/g) microspheres with 3% base, after 35 days", "description": "This effect was confirmed by changes in pH in the release medium and alteration of the PLGA degradation rate.\nThe pH of the release medium was monitored by a Corning 430 pH meter (Corning Inc., NY) at each sampling interval."}, "[3]": {"conditions": "reference (23); cited from earlier work"}, "[4]": {"experiment": "pH measurement of saturated basic salts in water", "assay_type": "physicochemical", "conditions": "excess basic salt suspended in water, 37° C., 7 days", "protocol": "The suspension was then incubated at 37° C. for 7 days. The pH of the supernatant was determined with a Corning 430 pH meter (Corning Inc., NY)."}, "[5]": {"experiment": "pH of saturated basic salt suspension after addition of 1 N HCl", "assay_type": "physicochemical", "conditions": "acid added to the saturated suspension with excess salt, 37° C., 3 days", "description": "The difference of the neutralization effect from the salts is also reflected in the different water contents of their PLGA devices."}, "[6]": {"experiment": "VCR and VBL stability and release in PLGA microspheres by HPLC", "assay_type": "physicochemical", "protocol": "All other reagents and solvents were of analytical grade or purer and purchased from commercial suppliers. Microspheres Preparation Microspheres were prepared by a standard oil-in-oil emulsion-solvent extraction method (17). […] The resulting solution or suspension was added drop-wise to 25 ml of oil (95% cottonseed oil and 5% Span 85 emulsifier) stirred at 500 rpm and room temperature. After 2.5 h of microsphere hardening. 40 ml of petroleum ether (bp: 50 to 100° C.) were added to the emulsion to extract CAN. The emulsion was stirred for additional 15 min, the particles were collected by filtration, and washed 3 times with petroleum ether. The hardened microspheres were flash-frozen with liquid nitrogen and lyophilized with a Labconco Freezone 6 system for 1 day.\nThe HPLC system consisted of the following: a 510 pump, a 717 Plus autosampler, and a 486 UV detector (waters, Milford, Mass.). […] The mobile phase was composed of aqueous solution of sodium phosphate (10 mM) and methanol 40:60 (v/v) (pH 7.0). For UV detection, the wavelength was set to 298 nm.\nDrug release from microspheres was carried out in PBS (127 mM NaCl, 3 mM KCl, 8 mM Na2HPO4, 1 mM KH2PO4, pH 7.4) containing Tween 80 (0.02% w/w/) (PBST) at 37° C. under perfect sink conditions. […] Microspheres were weighed and dissolved in a 50% (v/v) ACN water solution. The precipitated polymer and salts were spun down by brief centrifugation. An aliquot of the supernatant containing drug was removed and analyzed by HPLC."}, "[7]": {"conditions": "aqueous solution; cited from earlier work"}},
  "note": "Where “and” joins values, the source holds several entries; their conditions need not be identical. Equal entries are not always repeated. Structures can show the parent of a compound that is named as a salt. Where two headings read alike, the source gives them in different places.",
  "data": [
    {"molecule": "bFGF: recombinant human basic fibroblast growth factor", "values": [
      {"measurement": "in vivo serum half-life", "setting": "[1]", "result": "< 3", "unit": "min"},
      {"measurement": "bFGF bioactive over the entire release interval", "setting": "Balb/c 3T3 fibroblasts", "result": "65-85%"},
      {"measurement": "in vivo biological activity, angiogenesis", "setting": "nude mice", "result": "confirmed"}
    ]},
    {"molecule": "[Mg+2].[OH-].[OH-]", "note": "[Mg(OH)2]", "values": [
      {"measurement": "pH of the release medium", "setting": "[2]", "result": "< 4.5"},
      {"measurement": "pH of saturated solution", "setting": "[3]", "result": 9.8},
      {"measurement": "pH of saturated solution", "setting": "[4]", "result": "9.97 and 9.76"},
      {"measurement": "pH after addition of 100 μl of 1 N HCl", "setting": "[5]", "result": 8.99},
      {"measurement": "drug degraded to the basic product during microsphere preparation", "setting": "[6]; VCR PLGA microspheres with co-encapsulated base", "result": 12, "unit": "%"}
    ]},
    {"molecule": "CC[C@]1(O)C[C@H]2CN(CCc3c([nH]c4ccccc34)[C@@](C(=O)OC)(c3cc4c(cc3OC)N(C=O)[C@H]3[C@@](O)(C(=O)OC)[C@H](OC(C)=O)[C@]5(CC)C=CCN6CC[C@]43[C@@H]65)C2)C1", "note": "[VCR, Vincristine sulfate]", "values": [
      {"measurement": "pH of maximum stability", "setting": "[7]", "result": "~4.5"},
      {"measurement": "stability of encapsulated drug", "setting": "[6]; PLGA (50% D,L lactide content) microspheres", "result": "becomes unstable"},
      {"measurement": "drug remaining intact", "setting": "[6]; VCR PLGA microspheres with ZnCO3, after 3 weeks", "result": 97, "unit": "%"},
      {"measurement": "drug remaining intact", "setting": "[6]; VCR PLGA microspheres with ZnCO3, after 4 weeks", "result": 92, "unit": "%"},
      {"measurement": "drug remained in its native form", "setting": "[6]; VCR in PLGA microspheres without base, 14 days incubation at 37° C.", "result": 23, "unit": "%"}
    ]}
  ]
}
